These results are taken from US8143261B2, “Thiazolo (4,5-D) pyrimidine compounds” (AstraZeneca AB, priority 1999, dated 2012).

One may read the melting point as the temperature of the solid-liquid transition.

`COCC(CO)Nc1nc(SCc2cccc(F)c2F)nc2[nH]c(=O)sc12.[Na]` (racemic) displayed a melting point above 250 °C. Consider `CC(COCCO)Nc1nc(SCc2cccc(F)c2F)nc2[nH]c(=O)sc12` (racemic) [Example 11, (+/−)-5-[[(2,3-difluorophenyl)methyl]thio]-7-[[2-(2-hydroxyethoxy)-1-methylethyl]amino]thiazolo[4,5-d]pyrimidin-2(3H)-one], for which the melting point lay in the range of 221 to 222 °C. With `CC(C)(CO)Nc1nc(SCc2ccccc2)nc2[nH]c(=O)sc12` [Example 1, 7-[(2-Hydroxy-1,1-dimethylethyl)amino]-5-[(phenylmethyl)thio]thiazolo[4,5-d]pyrimidin-2(3H)-one] the figure was 207 to 208 °C; with `O=c1[nH]c2nc(SCc3cccc(F)c3F)nc(NC(CO)CO)c2s1` [Example 7, 5-[[(2,3-difluorophenyl)methyl]thio]-7-[[2-hydroxy-1-(hydroxymethyl)ethyl]amino]thiazolo[4,5-d]pyrimidin-2(3H)-one], 178 to 179 °C; with `NCCNc1nc(SCc2cccc(F)c2F)nc2[nH]c(=O)sc12` [Example 8, 7-[(2-aminoethyl)amino]-5-[[(2,3-difluorophenyl)methyl]thio]thiazolo[4,5-d]pyrimidin-2(3H)-one], 215 to 216 °C. The same measure for `O=c1[nH]c2nc(SCc3cccc(F)c3F)nc(NCCO)c2s1` [Example 9, 5-[[(2,3-difluorophenyl)methyl]thio]-7-[(2-hydroxyethyl)amino]thiazolo[4,5-d]pyrimidin-2(3H)-one]: 217 to 219 °C; for `CS(=O)(=O)NCCNc1nc(SCc2cccc(F)c2F)nc2[nH]c(=O)sc12` [Example 10, N-[2-[[5-[[(2,3-difluorophenyl)methyl]thio]-2,3-dihydro-2-oxothiazolo[4,5-d]pyrimidin-7-yl]amino]ethyl]methanesulfonamide]: 225 to 226 °C. With `O=c1[nH]c2nc(SCc3cccc(F)c3F)nc(N[C@@H]3CNC[C@H]3O)c2s1` [Example 18, 5-[[(2,3-Difluorophenyl)methyl]thio]-7-[[(3R,4R)-4-hydroxypyrrolidin-3-yl]amino]-thiazolo[4,5-d]pyrimidin-2(3H)-one] the figure was 270 °C (dec.); with `Cc1nc(CSc2nc(NC(CO)CO)c3sc(=O)[nH]c3n2)cs1` [Example 21, 7-[[2-Hydroxy-1-(hydroxymethyl)ethyl]amino]-5-[[(2-methyl-4-thiazolyl)methyl]thio]thiazolo[4,5-d]pyrimidin-2(3H)-one], 239 to 243 °C; with `Cc1nc(CSc2nc(NC(C)(C)CO)c3sc(=O)[nH]c3n2)cs1` [Example 22, 7-[(2-Hydroxy-1,1-dimethylethyl)amino]-5-[[(2-methyl-4-thiazolyl)methyl]thio]thiazolo[4,5-d]pyrimidin-2(3H)-one], 231 to 232 °C. `C[C@H](CN)Nc1nc(SCc2cccc(Cl)c2F)nc2[nH]c(=O)sc12` [Example 25, 7-[[(1R)-2-Amino-1-methylethyl]amino]-5-[[(3-chloro-2-fluorophenyl)methyl]thio]thiazolo[4,5-d]pyrimidin-2(3H)-one] displayed a melting point of 241 to 243 °C.

`NC(=O)[C@H](CO)Nc1nc(SCc2cccc(F)c2F)nc2[nH]c(=O)sc12` [Example 26, (2S)-2-[[5-[[(2,3-Difluorophenyl)methyl]thio]-2,3-dihydro-2-oxothiazolo[4,5-d]pyrimidin-7-yl]amino]-3-hydroxy-propanamide] showed a melting point of 145 to 151 °C.
